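96-well plates; 48 h exposure; 5 concentrations. Endpoints by linear interpolation between flanking doses. Not reached: highest tested concentration assigned. At the GI50, growth is halved. The concentration for full growth arrest is given as TGI.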
Assays:
Assay in all cases: NCI anticancer screen, dose series, 48 h
[1] = test system: A498 renal
[2] = test system: CAKI-1 renal
[3] = test system: CCRF-CEM leukemia
[4] = test system: DU-145 prostate
[5] = test system: HCT-116 colon
[6] = test system: NCI-H522 lung
[7] = test system: OVCAR-3 ovarian
[8] = test system: OVCAR-4 ovarian
[9] = test system: SR leukemia
[10] = test system: U251 CNS

Work on `C=C1C(=O)O[C@H]2[C@H]1CC/C(Cn1cc(Cn3ccc4ccccc43)nn1)=C\CC[C@@]1(C)O[C@@H]21` yielded a GI50 [1] of 4.3 µM, a TGI [1] of 16.6 µM and a GI50 [2] of 1.15 µM. The TGI [2] was 2.38 µM, the GI50 [3] was 0.298 µM and the TGI [3] was 1.73 µM. The GI50 [4] was 1.64 µM, the TGI [4] was 3.01 µM and the GI50 [5] was 0.762 µM. The TGI [5] was 2.15 µM, the GI50 [6] was 1.27 µM and the TGI [6] was 2.69 µM. The GI50 [7] was 1.62 µM, the TGI [7] was 3.01 µM and the GI50 [8] was 1.67 µM. For the same compound, the TGI [8] was 3.46 µM, the GI50 [9] was 0.345 µM and the TGI [9] was 3.71 µM. It also gave a GI50 [10] of 3.42 µM and a TGI [10] of 12.1 µM.
In the case of `CNNCc1ccc(C(=O)NC(C)C)cc1`, the TGI [1] is reported as over 500 µM, the GI50 [2] is reported as over 500 µM and the TGI [2] is reported as over 500 µM. The TGI [3] was over 500 µM, the TGI [4] was over 500 µM and the TGI [5] was over 500 µM. The TGI [6] was over 500 µM, the TGI [7] was over 472 µM and the TGI [8] was over 500 µM. For the same compound, the TGI [9] was over 375 µM, the GI50 [10] was over 500 µM and the TGI [10] was over 500 µM.
With `COC(=O)C(C)NP(=O)(OCc1ccc(Cn2cnc3c(=O)[nH]c(N)nc32)cc1)Oc1ccccc1` (stereo not drawn) the GI50 [1] was over 100 µM, the TGI [1] was over 100 µM and the GI50 [2] was over 100 µM. The TGI [2] was over 100 µM, the GI50 [3] was over 100 µM and the TGI [3] was over 100 µM. It also gave a GI50 [4] of over 100 µM, a TGI [4] of over 100 µM and a GI50 [5] of over 100 µM. The TGI [5] was over 100 µM, the GI50 [6] was over 100 µM and the TGI [6] was over 100 µM. It also gave a GI50 [7] of over 100 µM, a TGI [7] of over 100 µM and a GI50 [8] of over 100 µM. For the same compound, the TGI [8] was over 100 µM, the GI50 [9] was over 100 µM and the TGI [9] was over 100 µM. For the same compound, the GI50 [10] was over 100 µM and the TGI [10] was over 100 µM.
`O=C1/C(=C\C(Cl)=C/c2ccc([N+](=O)[O-])cc2)SC(=S)N1CCc1ccc(O)cc1` was tested, and the GI50 [1] was 1.63 µM, the TGI [1] was 3.07 µM and the GI50 [2] was 0.548 µM. For the same compound, the TGI [2] was 1.53 µM, the GI50 [3] was 0.31 µM and the TGI [3] was 5.67 µM. The GI50 [4] was 0.471 µM, the TGI [4] was 1.72 µM and the GI50 [5] was 0.201 µM. For the same compound, the TGI [5] was 0.455 µM, the GI50 [6] was 0.502 µM and the TGI [6] was 2.67 µM. For the same compound, the GI50 [7] was 0.4 µM, the TGI [7] was 1.43 µM and the GI50 [8] was 0.496 µM. For the same compound, the TGI [8] was 1.8 µM, the GI50 [9] was 0.327 µM and the GI50 [10] was 0.261 µM. It also gave a TGI [10] of 0.85 µM.
Work on `O=C1C(=O)c2ccccc2-c2ccccc21` yielded a GI50 [1] of 1.8 µM, a TGI [1] of 3.32 µM and a GI50 [2] of 1.75 µM. For the same compound, the TGI [2] was 3.34 µM, the GI50 [3] was 1.5 µM and the TGI [3] was 4.85 µM. The GI50 [4] was 1.68 µM, the TGI [4] was 3.07 µM and the GI50 [5] was 0.831 µM. For the same compound, the TGI [5] was 2.21 µM, the GI50 [6] was 1.75 µM and the TGI [6] was 4.12 µM. It also gave a GI50 [7] of 1.72 µM, a TGI [7] of 3.2 µM and a GI50 [8] of 1 µM. It also gave a TGI [8] of 2.25 µM, a GI50 [9] of 0.555 µM and a TGI [9] of 7.82 µM. For the same compound, the GI50 [10] was 1.67 µM and the TGI [10] was 3.53 µM.
With `CCOC(=O)c1c(C)nc2ccc(Cl)cc2c1-c1ccccc1` the GI50 [1] was 15.5 µM, the TGI [1] was 33.4 µM and the GI50 [2] was 21.1 µM. It also gave a TGI [2] of 55 µM, a GI50 [3] of 18.8 µM and a TGI [3] of 48.9 µM. It also gave a GI50 [4] of 31.6 µM, a TGI [4] of over 100 µM and a GI50 [5] of 12.3 µM. For the same compound, the TGI [5] was 28.8 µM, the GI50 [6] was 14.2 µM and the TGI [6] was 36.6 µM. It also gave a GI50 [7] of 19 µM, a TGI [7] of 43.1 µM and a GI50 [8] of 20.6 µM. It also gave a TGI [8] of 66.6 µM, a GI50 [9] of 18.4 µM and a TGI [9] of 48.5 µM. It also gave a GI50 [10] of 19.1 µM and a TGI [10] of 40.6 µM.
Work on `O=c1cc(-c2ccc(Cl)cc2)[nH]c2ncccc12` yielded a TGI [1] of over 100 µM, a TGI [2] of over 100 µM and a TGI [3] of over 100 µM. For the same compound, the TGI [4] was over 100 µM, the GI50 [5] was 32.1 µM and the TGI [5] was over 100 µM. It also gave a TGI [6] of over 100 µM, a GI50 [7] of 23.4 µM and a TGI [7] of 73.8 µM. For the same compound, the TGI [8] was over 100 µM, the TGI [9] was 37.5 µM and the TGI [10] was over 100 µM.
`Oc1ccc(CNCc2ccccc2)c2cccnc12` was tested, and the TGI [1] was over 100 µM, the TGI [2] was over 100 µM and the TGI [3] was 0.343 µM. For the same compound, the TGI [4] was 38.4 µM, the TGI [5] was over 100 µM and the TGI [6] was over 100 µM. For the same compound, the TGI [7] was 0.721 µM, the TGI [8] was over 100 µM and the TGI [9] was over 100 µM. The TGI [10] was 2.77 µM.
Work on `COc1ccc(-c2cc(=O)c3c(OC)c(OC)c(OC)c(OC)c3o2)cc1OC` yielded a TGI [1] of over 100 µM, a TGI [2] of over 100 µM and a TGI [3] of over 100 µM. It also gave a TGI [4] of over 100 µM, a TGI [5] of over 100 µM and a TGI [6] of over 100 µM. It also gave a TGI [7] of over 100 µM, a TGI [8] of over 100 µM and a TGI [9] of over 100 µM. For the same compound, the TGI [10] was over 100 µM.

From PubChem BioAssay (NCI)
